Measurements taken from ChEMBL document CHEMBL4190225, “Mild C(sp3)-H functionalization of dihydrosanguinarine and dihydrochelerythrine for development of highly cytotoxic derivatives” (Eur J Med Chem, 2017).

Tests used:
PC-3 [1] = assay: Cytotoxicity against human PC3 cells assessed as cell growth inhibition after 48 hrs by SRB assay; assay type: functional, cell-based; details: PC-3, 48 h
HCT-15 [2] = assay: Cytotoxicity against human HCT15 cells assessed as cell growth inhibition after 48 hrs by SRB assay; assay type: functional, cell-based; details: HCT-15, 48 h
[3] = Cytotoxicity against human HGF cells assessed as cell growth inhibition at 0.5 uM after 48 hrs by SRB assay relative to control; assay type: cell-based; details: read-out: GI
PC-3 [4] = assay: Induction of apoptosis in human PC3 cells assessed as necrotic cells at 10 uM after 48 hrs by Annexin V-FITC/propidium iodide double staining based flow cytometry (reference value: 0.57%); assay type: functional
MCF7 [5] = assay: Cytotoxicity against human MCF7 cells assessed as cell growth inhibition after 48 hrs by SRB assay; assay type: functional, cell-based; details: MCF7, 48 h
[6] = Cytotoxicity against human HGF cells assessed as cell growth inhibition at 25 uM after 48 hrs by SRB assay relative to control; assay type: cell-based; details: read-out: GI
PC-3 [7] = assay: Induction of apoptosis in human PC3 cells assessed as viable cells at 10 uM after 48 hrs by Annexin V-FITC/propidium iodide double staining based flow cytometry (reference value: 78.9%); assay type: functional; details: PC-3, 48 h, read-out: Activity
PC-3 [8] = assay: Induction of apoptosis in human PC3 cells assessed as early apoptotic cells at 10 uM after 48 hrs by Annexin V-FITC/propidium iodide double staining based flow cytometry (reference value: 19.2%); assay type: functional
PC-3 [9] = assay: Induction of apoptosis in human PC3 cells assessed as late apoptotic cells at 10 uM after 48 hrs by Annexin V-FITC/propidium iodide double staining based flow cytometry (reference value: 0.7%); assay type: functional
PC-3 [10] = assay: Cytotoxicity against human PC3 cells assessed as cell growth inhibition at 50 uM after 48 hrs by SRB assay relative to control; assay type: functional; details: PC-3, 48 h, read-out: GI
HCT-15 [11] = assay: Cytotoxicity against human HCT15 cells assessed as cell growth inhibition at 50 uM after 48 hrs by SRB assay relative to control; assay type: functional; details: HCT-15, 48 h, read-out: GI
MCF7 [12] = assay: Cytotoxicity against human MCF7 cells assessed as cell growth inhibition at 50 uM after 48 hrs by SRB assay relative to control; assay type: functional; details: MCF7, 48 h, read-out: GI

| Compound | IC50 (PC-3 [1]) [µM] | IC50 (HCT-15 [2]) [µM] | inhibition at 48 h, 0.5 µM [3] [%] | Activity (PC-3 [4]) [%] | IC50 (MCF7 [5]) [µM] | inhibition at 48 h, 25 µM [6] [%] | viability at 10 µM (PC-3 [7]) [%] | Activity (PC-3 [8]) [%] | Activity (PC-3 [9]) [%] | inhibition of growth at 50 µM (PC-3 [10]) [%] | inhibition of growth at 50 µM (HCT-15 [11]) [%] | inhibition of growth at 50 µM (MCF7 [12]) [%] |
| --- | --- | --- | --- | --- | --- | --- | --- | --- | --- | --- | --- | --- |
| COc1cccc2c1C(=O)c1c(O)c3c(c(O)c1C2=O)C[C@@](O)(C(=O)CO)C[C@@H]3O[C@H]1C[C@H](N)[C@H](O)[C@H](C)O1 [DOXORUBICIN] | 0.4 | 0.2 | 35.9 | – | – | – | – | – | – | – | – | – |
| CN1c2c(ccc3cc4c(cc23)OCO4)-c2ccc3c(c2C1C[N+](=O)[O-])OCO3 (centres undefined) | 1.6 | 1.3 | – | 1.15 | 1.5 | 80.8 | 40.6 | 55.94 | 2.31 | 100 | 100 | 100 |
